17 molecules from patent US20080132536A1, “PYRAZOLO [3,4-B] PYRIDINE COMPOUNDS, AND THEIR USE AS PDE4 INHIBITORS” (Glaxo Group Limited, priority 2003, published 2008) can be followed below.

Each structure is given as a SMILES string.

T1 sequence (Q07343 1-564 isoform Q07343-2): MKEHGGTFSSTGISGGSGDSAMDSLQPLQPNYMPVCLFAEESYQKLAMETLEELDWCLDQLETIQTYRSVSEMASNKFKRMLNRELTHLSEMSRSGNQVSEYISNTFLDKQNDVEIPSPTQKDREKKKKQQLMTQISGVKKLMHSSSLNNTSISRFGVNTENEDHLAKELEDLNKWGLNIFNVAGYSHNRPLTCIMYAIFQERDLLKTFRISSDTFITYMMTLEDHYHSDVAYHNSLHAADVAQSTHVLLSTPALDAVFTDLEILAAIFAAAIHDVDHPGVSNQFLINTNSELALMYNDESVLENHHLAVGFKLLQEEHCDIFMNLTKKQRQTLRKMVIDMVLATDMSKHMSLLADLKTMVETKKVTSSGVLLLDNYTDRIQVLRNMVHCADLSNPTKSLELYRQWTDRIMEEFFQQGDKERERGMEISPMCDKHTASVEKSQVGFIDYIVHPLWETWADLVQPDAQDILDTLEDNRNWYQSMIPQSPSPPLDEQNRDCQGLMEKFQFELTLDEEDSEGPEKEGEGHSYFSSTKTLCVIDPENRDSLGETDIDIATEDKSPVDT

One assay concerns the target T1, PDE4B (human recombinant) (Homo sapiens, UniProt Q07343).
T1 construct: made in house
Nature of the assay: PDE4B inhibition, radioactive SPA and/or IMAP fluorescence polarisation (FP) assay. It counts as biochemical. To be noted: comparators: Examples 6, 7, 29, 26, 64, 126, 124, 170, 177. The source says: Human recombinant PDE4B, in particular the 2B splice variant thereof (HSPDE4B2B), is disclosed in WO 94/20079 and also M. M. McLaughlin et al., “A low Km, rolipram-sensitive, cAMP-specific phosphodiesterase from human brain: cloning and expression of cDNA, biochemical characterisation of recombinant protein, and tissue distribution of mRNA”, J. Biol. Chem., 1993, 268, 6470-6476. For example, in Example 1 of WO 94/20079, human recombinant PDE4B is described as being expressed in the PDE-deficient yeast Saccharomyces cerevisiae strain GL62, e.g. after induction by addition of 150 uM CuSO4, and 100,000×g supernatant fractions of yeast cell lysates are described for use in the harvesting of PDE4B enzyme.
The ability of compounds to inhibit catalytic activity at PDE4B or 4D (human recombinant), PDE3 (from bovine aorta), PDE5 (human recombinant) or PDE6 (from bovine retina) can optionally be determined by Scintillation Proximity Assay (SPA) in 96-well format.
Test compounds (as a solution in DMSO, preferably about 2 microlitre (ul) volume of DMSO solution) are preincubated at ambient temperature (room temperature, e.g. 19-23° C.) in Wallac Isoplates (code 1450-514) with PDE enzyme in 50 mM Tris-HCl buffer pH 7.5, 8.3 mM MgCl2, 1.7 mM EGTA, 0.05% (w/v) bovine serum albumin for 10-30 minutes (usually 30 minutes). The enzyme concentration is adjusted so that no more than 20% hydrolysis of the substrate defined below occurs in control wells without compound, during the incubation. For the PDE3, PDE4B and PDE4D assays, [5′,8-3H]Adenosine 3′,5′-cyclic phosphate (Amersham Pharmacia Biotech, code TRK.559; or Amersham Biosciences UK Ltd, Pollards Wood, Chalfont St Giles, Buckinghamshire HP8 4SP, UK) is added to give 0.05 uCi per well and about 10 nM final concentration. For the PDE5 and PDE6 assays, [8-^3H]Guanosine 3′,5′-cyclic phosphate (Amersham Pharmacia Biotech, code TRK.392) is added to give 0.05 uCi per well and about 36 nM final concentration. Plates containing assay mixture, preferably approx. 100 ul volume of assay mixture, are mixed on an orbital shaker for 5 minutes and incubated at ambient temperature for 1 hour. Phosphodiesterase SPA beads (Amersham Pharmacia Biotech, code RPNQ 0150) are added (about 1 mg per well) to terminate the assay. Plates are sealed and shaken and allowed to stand at ambient temperature for 35 minutes to 1 hour (preferably 35 minutes) to allow the beads to settle. Bound radioactive product is measured using a WALLAC TRILUX 1450 Microbeta scintillation counter. For inhibition curves, 10 concentrations (1.5 nM-30 uM) of each compound are assayed. Curves are analysed using ActivityBase and XLfit (ID Business Solutions Limited, 2 Ocean Court, Surrey Research Park, Guildford, Surrey GU2 7QB, United Kingdom) Results are expressed as pIC50 values.
The ability of compounds to inhibit catalytic activity at PDE4B (human recombinant) or PDE4D (human recombinant) can optionally be determined by IMAP Fluorescence Polarisation (FP) assay (IMAP Explorer kit, available from Molecular Devices Corporation, Sunnydale, Calif., USA; Molecular Devices code: R8062) in 384-well format.
The IMAP FP assay is able to measure PDE activity in an homogenous, non-radioactive assay format. The FP assay uses the ability of immobilised trivalent metal cations, coated onto nanoparticles (tiny beads), to bind the phosphate group of Fl-AMP that is produced on the hydrolysis of fluorescein-labelled (Fl) cyclic adenosine mono-phosphate (Fl-cAMP) to the non-cyclic Fl-AMP form. […] Binding of Fl-AMP product to the beads (coated with the immobilised trivalent cations) slows the rotation of the bound Fl-AMP and leads to an increase in the fluorescence polarisation ratio of parallel to perpendicular light. Inhibition of the PDE reduces/inhibits this signal increase. […]
`CCn1ncc2c(NC3CCOCC3)c(C(=O)N[C@H](COC)c3ccccc3)cnc21` [Example 24, 1-ethyl-N-[(1S)-2-(methyloxy)-1-phenylethyl]-4-(tetrahydro-2H-pyran-4-ylamino)-1H-pyrazolo[3,4-b]pyridine-5-carboxamide]: the “PDE4B inhibitory activity compared with the comparable Example of opposite stereochemistry at the CR4R5 (benzylic) carbon atom” value is “greater PDE4B inhibitory activity”.
Still for that read-out and setting: with `CCn1ncc2c(NC3CCOCC3)c(C(=O)N[C@H](C)c3ccc(OC)cc3)cnc21` [Example 63, 1-ethyl-N-{(1R)-1-[4-(methyloxy)phenyl]ethyl}-4-(tetrahydro-2H-pyran-4-ylamino)-1H-pyrazolo[3,4-b]pyridine-5-carboxamide] the entry was “greater PDE4B inhibitory activity”; with `CC[C@@H](NC(=O)c1cnc2c(cnn2CC)c1NC1CCOCC1)c1ccccc1` [Example 1, 1-ethyl-N-[(1R)-1-phenylpropyl]-4-(tetrahydro-2H-pyran-4-ylamino)-1H-pyrazolo[3,4-b]pyridine-5-carboxamide], “greater PDE4B inhibitory activity”.

Staying with this assay, now noted: one reading or average of several (ca. 2-6) readings; SPA and/or FP assay; range given for a group of Examples; read-out: PDE4B pIC50 (±about 0.5) (converted).
Regarding `CCn1ncc2c(NC3CCOCC3)c(C(=O)N[C@H](COC)c3ccccc3)cnc21` [Example 24, 1-ethyl-N-[(1S)-2-(methyloxy)-1-phenylethyl]-4-(tetrahydro-2H-pyran-4-ylamino)-1H-pyrazolo[3,4-b]pyridine-5-carboxamide], the IC50 was 0.794 to 5.01 nM.
Still for that read-out and setting: to `CCn1ncc2c(N[C@H]3CC[C@H](C(N)=O)CC3)c(C(=O)N[C@H](C)c3ccc(C)cc3)cnc21` [Example 357, 4-{[trans-4-(aminocarbonyl)cyclohexyl]amino}-1-ethyl-N-[(1R)-1-(4-methylphenyl)ethyl]-1H-pyrazolo[3,4-b]pyridine-5-carboxamide] belongs 39.8 to 158 nM; to `CCn1ncc2c(NC3CCOCC3)c(C(=O)N[C@H](C)c3ccc(OC)cc3)cnc21` [Example 63, 1-ethyl-N-{(1R)-1-[4-(methyloxy)phenyl]ethyl}-4-(tetrahydro-2H-pyran-4-ylamino)-1H-pyrazolo[3,4-b]pyridine-5-carboxamide], 0.794 to 5.01 nM.
On the same count and under the same terms, to `CCn1ncc2c(NC3CCCCC3)c(C(=O)N[C@H](C)c3ccc(C)cc3)cnc21` [Example 139, 4-(cyclohexylamino)-1-ethyl-N-[(1R)-1-(4-methylphenyl)ethyl]-1H-pyrazolo[3,4-b]pyridine-5-carboxamide] belongs 0.1 to 2 nM; to `CCC(NC(=O)c1cnc2c(cnn2CC)c1NC1CCC(C(N)=O)CC1)c1ccc(F)cc1` (mixture of isomers) [Example 350, 4-{[4-(aminocarbonyl)cyclohexyl]amino}-1-ethyl-N-[1-(4-fluorophenyl)propyl]-1H-pyrazolo[3,4-b]pyridine-5-carboxamide], 0.501 to 3.16 nM; to `CCn1ncc2c(NC3CCC(C(N)=O)CC3)c(C(=O)NC(C)c3ccc(OC(F)F)cc3)cnc21` (mixture of isomers) [Example 348, 4-{[4-(aminocarbonyl)cyclohexyl]amino}-N-(1-{4-[(difluoromethyl)oxy]phenyl}ethyl)-1-ethyl-1H-pyrazolo[3,4-b]pyridine-5-carboxamide], 0.501 to 3.16 nM.
Still for that read-out and setting: to `CCn1ncc2c(N[C@H]3CC[C@@H](C(N)=O)CC3)c(C(=O)N[C@H](C)c3ccc(C)cc3)cnc21` [Example 353, 4-{[cis-4-(aminocarbonyl)cyclohexyl]amino}-1-ethyl-N-[(1R)-1-(4-methylphenyl)ethyl]-1H-pyrazolo[3,4-b]pyridine-5-carboxamide] belongs 0.501 to 3.16 nM; to `CCn1ncc2c(NC3CCOCC3)c(C(=O)N[C@H](C)c3cccc4ccccc34)cnc21` [Example 37, 1-ethyl-N-[(1R)-1-(1-naphthalenyl)ethyl]-4-(tetrahydro-2H-pyran-4-ylamino)-1H-pyrazolo[3,4-b]pyridine-5-carboxamide], 12.6 to 25.1 nM; to `CCn1ncc2c(NC3CCOCC3)c(C(=O)N[C@@H](CO)c3ccccc3)cnc21` [Example 26, 1-ethyl-N-[(1R)-2-hydroxy-1-phenylethyl]-4-(tetrahydro-2H-pyran-4-ylamino)-1H-pyrazolo[3,4-b]pyridine-5-carboxamide], 31.6 to 70.8 nM.
Turning to `CCn1ncc2c(NC3CCOCC3)c(C(=O)N[C@@H](C)c3ccccc3)cnc21` [Example 7, 1-ethyl-N-[(1S)-1-phenylethyl]-4-(tetrahydro-2H-pyran-4-ylamino)-1H-pyrazolo[3,4-b]pyridine-5-carboxamide], the IC50 is 31.6 to 70.8 nM.
Same read-out and setting: with `CCC(NC(=O)c1cnc2c(cnn2CC)c1NC1CCC(=O)CC1)c1ccc(C)cc1` (centres unmarked) [Example 221, 1-ethyl-N-[1-(4-methylphenyl)propyl]-4-[(4-oxocyclohexyl)amino]-1H-pyrazolo[3,4-b]pyridine-5-carboxamide] the figure was 0.1 to 2 nM; with `CCn1ncc2c(N[C@H]3CC[C@@H](C(N)=O)CC3)c(C(=O)N[C@H](C)c3ccccc3)cnc21` [Example 354, 4-{[cis-4-(aminocarbonyl)cyclohexyl]amino}-1-ethyl-N-[(1R)-1-phenylethyl]-1H-pyrazolo[3,4-b]pyridine-5-carboxamide], 0.501 to 3.16 nM; with `CCn1ncc2c(NC3CCOCC3)c(C(=O)N[C@H](C)c3ccc(Br)cc3)cnc21` [Example 75, N-[(1R)-1-(4-bromophenyl)ethyl]-1-ethyl-4-(tetrahydro-2H-pyran-4-ylamino)-1H-pyrazolo[3,4-b]pyridine-5-carboxamide], 0.794 to 5.01 nM.
Take `CCn1ncc2c(N[C@H]3CC[C@H](C(N)=O)CC3)c(C(=O)N[C@H](C)c3ccc(Br)cc3)cnc21` [Example 359, 4-{[trans-4-(aminocarbonyl)cyclohexyl]amino}-N-[(1R)-1-(4-bromophenyl)ethyl]-1-ethyl-1H-pyrazolo[3,4-b]pyridine-5-carboxamide]: the IC50 is 39.8 to 158 nM.
The same measure, in the same setting: with `CCn1ncc2c(NC3CCC(=O)CC3)c(C(=O)N[C@H](C)c3ccc(C)cc3)cnc21` [Example 191, 1-ethyl-N-[(1R)-1-(4-methylphenyl)ethyl]-4-[(4-oxocyclohexyl)amino]-1H-pyrazolo[3,4-b]pyridine-5-carboxamide] the figure was 0.1 to 2 nM; with `CC[C@@H](NC(=O)c1cnc2c(cnn2CC)c1NC1CCOCC1)c1ccccc1` [Example 1, 1-ethyl-N-[(1R)-1-phenylpropyl]-4-(tetrahydro-2H-pyran-4-ylamino)-1H-pyrazolo[3,4-b]pyridine-5-carboxamide], 0.794 to 5.01 nM.
On to `CCn1ncc2c(NC3CCOCC3)c(C(=O)NC(C)(C)c3ccccc3)cnc21` [Example 2, 1-ethyl-N-(1-methyl-1-phenylethyl)-4-(tetrahydro-2H-pyran-4-ylamino)-1H-pyrazolo[3,4-b]pyridine-5-carboxamide], for which the IC50 was 12.6 to 25.1 nM.
